Each compound was assayed against truncated Polθ protein (Polθ-Hel containing the helicase domain (67-894)) (Homo sapiens (Human), UniProt O75417) (assay: Polθ ATPase assay (Biological Assay 1, ADP-Glo luminescence)). Conditions: Polθ-Hel 0.5 nM, DNA substrate 500 nM, ATP 60 μM, 23° C.; read-out: Pole ATPase assay IC50.
Type: biochemical
Description: The Polθ ATPase assay was used to evaluate inhibitors of Polθ ATPase activity, in vitro. Experiments were performed using a truncated Polθ protein (Polθ-Hel containing the helicase domain (67-894), ATP and a DNA single strand Oligo (5′-CTGTCCTGCATGATG-3′) in the Polθ assay buffer (20 mM Tis-HCl (pH 8.8), MgCl2 5 mM, tween20 0.01%, NP40 0.01%, BSA 0.01%, DTT 1 mM). 2 μL of assay buffer containing Pole-Hel protein (0.5 nM) and DNA substrate (500 nM) was transferred into assay ready plates, containing 0.04 μL of compounds diluted in DMSO. After a 30 minutes incubation at 23° C. in the dark, the reaction was triggered by adding 2 μL of ATP (60 μM), in assay buffer. After 60 minutes at 23° C., 4 μl of ADP-Glo™ Reagent (Glo 1) was added followed by 40 minutes of incubation, then 8 μl of ADP-Glom kinase Detection Reagent (Glo 2) followed by 60 minutes of incubation at 23° C. Luminescence was then measured using Tecan F200 infinite plate reader. Raw data were analysed using GeneData to generate IC50 values.
The Polθ ATPase assay described in Biological Assay 1 above was used to evaluate inhibitors of Polθ ATPase activity for the compounds described in the Experimental Part B above, in vitro.

truncated Polθ protein (Polθ-Hel containing the helicase domain (67-894)), sequence (O75417 67-894): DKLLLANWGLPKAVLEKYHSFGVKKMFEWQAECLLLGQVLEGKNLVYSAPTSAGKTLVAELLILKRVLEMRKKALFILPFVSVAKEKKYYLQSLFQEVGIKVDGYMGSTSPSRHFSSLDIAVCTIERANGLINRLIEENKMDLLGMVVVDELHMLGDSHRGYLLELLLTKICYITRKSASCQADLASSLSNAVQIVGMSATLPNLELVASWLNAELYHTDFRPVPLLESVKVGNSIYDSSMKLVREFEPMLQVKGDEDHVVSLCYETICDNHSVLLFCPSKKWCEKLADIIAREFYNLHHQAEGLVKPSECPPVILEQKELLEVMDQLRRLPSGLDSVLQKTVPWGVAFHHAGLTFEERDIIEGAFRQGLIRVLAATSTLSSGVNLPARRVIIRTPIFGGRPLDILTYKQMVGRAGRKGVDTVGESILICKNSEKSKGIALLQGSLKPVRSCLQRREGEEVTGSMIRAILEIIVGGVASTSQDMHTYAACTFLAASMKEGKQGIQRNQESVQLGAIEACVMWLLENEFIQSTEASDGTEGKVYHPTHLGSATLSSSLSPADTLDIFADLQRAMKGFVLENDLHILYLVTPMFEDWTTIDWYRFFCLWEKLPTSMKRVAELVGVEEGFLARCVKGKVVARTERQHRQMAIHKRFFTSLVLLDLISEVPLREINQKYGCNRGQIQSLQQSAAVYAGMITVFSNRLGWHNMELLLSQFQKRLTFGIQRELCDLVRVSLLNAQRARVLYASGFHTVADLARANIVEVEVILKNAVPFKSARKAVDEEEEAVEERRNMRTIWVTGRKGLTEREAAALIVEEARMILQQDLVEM

| IC50 | SMILES |
| --- | --- |
| < 100 nM | COc1cnc(Cl)cc1-c1cc(C)ncc1C(=O)Nc1nc2cnc(N[C@@H]3CC[C@H](O)C3)nc2s1 (racemic) [Example 49, rac-2′-chloro-N-(5-{[(1R,3S)-3-hydroxycyclopentyl]amino}-[1,3]thiazolo[5,4-d]pyrimidin-2-yl)-5′-methoxy-6-methyl-[4,4′-bipyridine]-3-carboxamide] |
| < 100 nM | COc1cnc(Cl)cc1-c1cc(C)ncc1C(=O)Nc1nc2ccc(Cl)cc2s1 [Example 1, N-(6-chloro-1,3-benzothiazol-2-yl)-4-(2-chloro-5-methoxy-4-pyridyl)-6-methyl-pyridine-3-carboxamide] |
| < 100 nM | COc1cnc(Cl)cc1-c1cc(C)ncc1C(=O)Nc1nc2ccc(S(C)(=O)=O)cc2s1 [Example 2, 2′-chloro-N-(6-methanesulfonyl-1,3-benzothiazol-2-yl)-5′-methoxy-6-methyl-[4,4′-bipyridine]-3-carboxamide] |
| < 100 nM | COc1cnc(Cl)cc1-c1cc(C)ncc1C(=O)Nc1nc2ccc(C#N)cc2s1 [Example 3, 2′-chloro-N-(6-cyano-1,3-benzothiazol-2-yl)-5′-methoxy-6-methyl-[4,4′-bipyridine]-3-carboxamide] |
| < 100 nM | COc1cnc(Cl)cc1-c1cc(C)ncc1C(=O)Nc1nc2ccc(Br)cc2s1 [Example 5, N-(6-bromo-1,3-benzothiazol-2-yl)-2′-chloro-5′-methoxy-6-methyl-[4,4′-bipyridine]-3-carboxamide] |
| < 100 nM | COc1cnc(Cl)cc1-c1cc(C)ncc1C(=O)Nc1nc2cnc(Cl)nc2s1 [Example 6, 2′-chloro-N-{5-chloro-[1,3]thiazolo[5,4-d]pyrimidin-2-yl}-5′-methoxy-6-methyl-[4,4′-bipyridine]-3-carboxamide] |
| < 100 nM | COc1cnc(Cl)cc1-c1cc(C)ncc1C(=O)Nc1nc2ccc(Cl)nc2s1 [Example 7, 2′-chloro-N-{5-chloro-[1,3]thiazolo[5,4-b]pyridin-2-yl}-5′-methoxy-6-methyl-[4,4′-bipyridine]-3-carboxamide] |
| 100 to 1000 nM | COc1ccccc1-c1cnccc1C(=O)Nc1nc2cncnc2s1 [Example 8, 3-(2-methoxyphenyl)-N-{[1,3]thiazolo[5,4-d]pyrimidin-2-yl}pyridine-4-carboxamide] |
| 100 to 1000 nM | COc1ccccc1-c1cnccc1C(=O)Nc1nc2ccc(Br)cc2s1 [Example 9, N-(6-bromo-1,3-benzothiazol-2-yl)-3-(2-methoxyphenyl)pyridine-4-carboxamide] |
| > 1000 nM | COc1ccccc1-c1cnccc1C(=O)Nc1nc2cnccc2s1 [Example 10, 3-(2-methoxyphenyl)-N-{[1,3]thiazolo[4,5-c]pyridin-2-yl}pyridine-4-carboxamide] |
| > 1000 nM | COc1ccccc1-c1cnccc1C(=O)Nc1nc2ncccc2s1 [Example 11, 3-(2-methoxyphenyl)-N-{[1,3]thiazolo[4,5-b]pyridin-2-yl}pyridine-4-carboxamide] |
| > 1000 nM | COc1ccccc1-c1cnccc1C(=O)Nc1nc2cc(C(F)(F)F)ccc2s1 [Example 12, 3-(2-methoxyphenyl)-N-[5-(trifluoromethyl)-1,3-benzothiazol-2-yl]pyridine-4-carboxamide] |
| > 1000 nM | COc1ccccc1-c1cnccc1C(=O)Nc1nc2cc(Cl)ccc2s1 [Example 13, N-(5-chloro-1,3-benzothiazol-2-yl)-3-(2-methoxyphenyl)pyridine-4-carboxamide] |
| < 100 nM | COc1cnc(Cl)cc1-c1cc(C)ncc1C(=O)Nc1nc2ccc(N3CCOCC3)cc2s1 [Example 17, 2′-chloro-5′-methoxy-6-methyl-N-[6-(morpholin-4-yl)-1,3-benzothiazol-2-yl]-[4,4′-bipyridine]-3-carboxamide] |
| < 100 nM | COc1cnc(Cl)cc1-c1cc(C)ncc1C(=O)Nc1nc2cnc(N3CCCCC3)nc2s1 [Example 20, 2′-chloro-5′-methoxy-6-methyl-N-[5-(piperidin-1-yl)-[1,3]thiazolo[5,4-d]pyrimidin-2-yl]-[4,4′-bipyridine]-3-carboxamide] |
| < 100 nM | COc1cnc(Cl)cc1-c1cc(C)ncc1C(=O)Nc1nc2cnc(N3CCC(F)(F)CC3)nc2s1 [Example 21, 2′-chloro-N-[5-(4,4-difluoropiperidin-1-yl)-[1,3]thiazolo[5,4-d]pyrimidin-2-yl]-5′-methoxy-6-methyl-[4,4′-bipyridine]-3-carboxamide] |
| < 100 nM | COc1cnc(Cl)cc1-c1cc(C)ncc1C(=O)Nc1nc2cnc(N3CCOCC3)nc2s1 [Example 22, 2′-chloro-5′-methoxy-6-methyl-N-[5-(morpholin-4-yl)-[1,3]thiazolo[5,4-d]pyrimidin-2-yl]-[4,4′-bipyridine]-3-carboxamide] |
| < 100 nM | COc1cnc(Cl)cc1-c1cc(C)ncc1C(=O)Nc1nc2cnc(N3CC[C@H](O)C3)nc2s1 [Example 23, 2′-chloro-N-{5-[(3S)-3-hydroxypyrrolidin-1-yl]-[1,3]thiazolo[5,4-d]pyrimidin-2-yl}-5′-methoxy-6-methyl-[4,4′-bipyridine]-3-carboxamide] |
| < 100 nM | COc1cnc(Cl)cc1-c1cc(C)ncc1C(=O)Nc1nc2cnc(N3CCCC3)nc2s1 [Example 24, 2′-chloro-5′-methoxy-6-methyl-N-[5-(pyrrolidin-1-yl)-[1,3]thiazolo[5,4-d]pyrimidin-2-yl]-[4,4′-bipyridine]-3-carboxamide] |
| < 100 nM | COc1cnc(Cl)cc1-c1cc(C)ncc1C(=O)Nc1nc2cnc(N3CCC(F)(F)C3)nc2s1 [Example 25, 2′-chloro-N-[5-(3,3-difluoropyrrolidin-1-yl)-[1,3]thiazolo[5,4-d]pyrimidin-2-yl]-5′-methoxy-6-methyl-[4,4′-bipyridine]-3-carboxamide] |
| < 100 nM | COc1cnc(Cl)cc1-c1cc(C)ncc1C(=O)Nc1nc2cnc(N3CC[C@@H](O)C3)nc2s1 [Example 26, 2′-chloro-N-{5-[(3R)-3-hydroxypyrrolidin-1-yl]-[1,3]thiazolo[5,4-d]pyrimidin-2-yl}-5′-methoxy-6-methyl-[4,4′-bipyridine]-3-carboxamide] |
| < 100 nM | COc1cnc(Cl)cc1-c1cc(C)ncc1C(=O)Nc1nc2cnc(N3CCS(=O)(=O)CC3)nc2s1 [Example 27, 2′-chloro-N-[5-(1,1-dioxo-1λ^6-thiomorpholin-4-yl)-[1,3]thiazolo[5,4-d]pyrimidin-2-yl]-5′-methoxy-6-methyl-[4,4′-bipyridine]-3-carboxamide] |
| < 100 nM | COc1cnc(Cl)cc1-c1cc(C)ncc1C(=O)Nc1nc2cnc(N3CCN(C)CC3)nc2s1 [Example 28, 2′-chloro-5′-methoxy-6-methyl-N-[5-(4-methylpiperazin-1-yl)-[1,3]thiazolo[5,4-d]pyrimidin-2-yl]-[4,4′-bipyridine]-3-carboxamide] |
| < 100 nM | COc1cnc(Cl)cc1-c1cc(C)ncc1C(=O)Nc1nc2cnc(N3CC4(COC4)C3)nc2s1 [Example 29, 2′-chloro-5′-methoxy-6-methyl-N-(5-{2-oxa-6-azaspiro[3.3]heptan-6-yl}-[1,3]thiazolo[5,4-d]pyrimidin-2-yl)-[4,4′'-bipyridine]-3-carboxamide] |
| < 100 nM | COCCNc1ncc2nc(NC(=O)c3cnc(C)cc3-c3cc(Cl)ncc3OC)sc2n1 [Example 30, 2′-chloro-5′-methoxy-N-{5-[(2-methoxyethyl)amino]-[1,3]thiazolo[5,4-d]pyrimidin-2-yl}-6-methyl-[4,4′-bipyridine]-3-carboxamide] |
| < 100 nM | COc1cnc(Cl)cc1-c1cc(C)ncc1C(=O)Nc1nc2cnc(N3CC(O)C3)nc2s1 [Example 31, 2′-chloro-N-[5-(3-hydroxyazetidin-1-yl)-[1,3]thiazolo[5,4-d]pyrimidin-2-yl]-5′-methoxy-6-methyl-[4,4′-bipyridine]-3-carboxamide] |
| < 100 nM | COc1cnc(Cl)cc1-c1cc(C)ncc1C(=O)Nc1nc2cnc(N3CCC(OC)C3)nc2s1 (stereo not shown) [Example 32, 2′-chloro-5′-methoxy-N-[5-(3-methoxypyrrolidin-1-yl)-[1,3]thiazolo[5,4-d]pyrimidin-2-yl]-6-methyl-[4,4′-bipyridine]-3-carboxamide] |
| < 100 nM | COc1cnc(Cl)cc1-c1cc(C)ncc1C(=O)Nc1nc2cnc(N3CCC(O)CC3)nc2s1 [Example 33, 2′-chloro-N-[5-(4-hydroxypiperidin-1-yl)-[1,3]thiazolo[5,4-d]pyrimidin-2-yl]-5′-methoxy-6-methyl-[4,4′-bipyridine]-3-carboxamide] |
| < 100 nM | COc1cnc(Cl)cc1-c1cc(C)ncc1C(=O)Nc1nc2cnc(N3C[C@@H]4C[C@H]3CO4)nc2s1 [Example 34, 2′-chloro-5′-methoxy-6-methyl-N-{5-[(1S,4S)-2-oxa-5-azabicyclo[2.2.1]heptan-5-yl]-[1,3]thiazolo[5,4-d]pyrimidin-2-yl}-[4,4′-bipyridine]-3-carboxamide] |
| < 100 nM | COc1cnc(Cl)cc1-c1cc(C)ncc1C(=O)Nc1nc2cnc(N3CCCC(C#N)C3)nc2s1 (stereo not shown) [Example 35, 2′-chloro-N-[5-(3-cyanopiperidin-1-yl)-[1,3]thiazolo[5,4-d]pyrimidin-2-yl]-5′-methoxy-6-methyl-[4,4′-bipyridine]-3-carboxamide] |

| SMILES | IC50 |
| --- | --- |
| COc1ccccc1-c1cnccc1C(=O)Nc1nc2cccnc2s1 [Example 14, 3-(2-methoxyphenyl)-N-{[1,3]thiazolo[5,4-b]pyridin-2-yl}pyridine-4-carboxamide] | > 1000 nM |

Reference: US20240327430A1 (Breakpoint Therapeutics GmbH, priority 2023, published 2024)
